How the values were obtained:
[1] = system: CCRF-CEM; assay: Inhibition of cell proliferation (MTT); type: cell-based, human; details: Leukemia
Procedure: (§1) Inhibition of cell proliferation is determined in human tumor cell lines. Innoculation density and doubling times for specific cell lines are listed at World Wide Web URL “dtp.nci.nih.gov/docs/misc/common_files/cell_list.html.”
(§2) • 1. Plate adherent cells the day before starting the experiment in 180 μl growth media (see list hereafter). • 2. Day of experiment, count and plate suspension cells in 180 μl growth media (see list on next page). • 3. Make 10× Compound, vehicle, and chemotherapeutic cocktail • a. Compound (1× to 10×) • i. 10 μM Compound to 100 μM • ii. 3 μM Compound to 30 μM • iii. 1 μM Compound to 10 μM • iv. 0.3 μM Compound to 3 μM • v. 0.1 μM Compound to 1 μM • b. Vehicle • i. PBS, equivalent to the volume used for 10 μM Compound (1× is ˜0.06% PBS) • c. Chemotherapeutic cocktail (1× to 10×): • i. 1 μM Velcade to 10 μM • ii. 100 μM Etoposide to 1 mM • iii. 20 μM Taxol to 200 μM • 4. Add 20 μl of the 10× compound/vehicle/chemotherapeutic cocktail to cells. • 5. Incubate at 37° C., 5% CO2 for 48 hours. • 6. Aspirate media. For suspension cells, spin plate at 1500 RPM for 10 minutes. Use a multichannel pipettor to slowly remove media. • 7. Add 200 μl of Thiazolyl Blue Tetrazolium Bromide (MTT) to each well: 0.863 mg/ml MTT in growth media.
(§3) Proliferation of several cancer cells was inhibited by compound TA1-1B (which is a particular mixture of the isomers represented by TA1-1A), as shown in the following table (Table 1). The value EC50 is the amount of Compound TA1-1B that results in 50% inhibition of proliferation of the indicated cell type.

[2] = system: HOP-92; assay: Inhibition of cell proliferation (MTT); type: cell-based, human; details: HOP-92, Non Small Cell Lung
Procedure: as §1, §2, §3

[3] = system: SR; assay: Inhibition of cell proliferation (MTT); type: cell-based, human; details: Leukemia
Procedure: as §1, §2, §3

[4] = target: Neurokinin NK2 receptor (Homo sapiens, UniProt P21452); assay: Receptor binding
[5] = target: M1 Muscarinic receptor (Homo sapiens, UniProt P11229); assay: Receptor binding
[6] = target: CCKB/CCK2 Cholecystokinin receptor (Homo sapiens, UniProt P32239); assay: Receptor binding
[7] = target: M4 Muscarinic receptor (Homo sapiens, UniProt P08173); assay: Receptor binding
[8] = system: σ (non-selective) sigma receptors; assay: Receptor binding
[9] = target: Adenosine A2A receptors (Homo sapiens, UniProt P29274); assay: Receptor binding
[10] = system: 5-HT1B 5-hydroxytryptamine (serotonin) receptor 1B; assay: Receptor binding
[11] = target: H2-receptor (Homo sapiens, UniProt P25021); assay: Receptor binding
[12] = target: T1, CCK1/CCKA (Homo sapiens, UniProt P32238); assay: Receptor functional assay; type: biochemical
T1 sequence (P32238 1-428): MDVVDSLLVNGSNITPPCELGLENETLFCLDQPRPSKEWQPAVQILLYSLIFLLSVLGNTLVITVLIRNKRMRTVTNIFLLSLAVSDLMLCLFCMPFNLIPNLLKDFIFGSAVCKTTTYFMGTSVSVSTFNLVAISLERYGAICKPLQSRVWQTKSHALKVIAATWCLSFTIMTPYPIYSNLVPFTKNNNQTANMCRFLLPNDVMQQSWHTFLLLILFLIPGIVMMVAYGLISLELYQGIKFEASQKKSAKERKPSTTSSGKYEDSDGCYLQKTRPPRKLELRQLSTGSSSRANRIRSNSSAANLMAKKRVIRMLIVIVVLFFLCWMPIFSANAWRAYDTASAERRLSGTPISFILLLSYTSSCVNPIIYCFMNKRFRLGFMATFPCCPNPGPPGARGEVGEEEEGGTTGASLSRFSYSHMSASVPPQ
Procedure: (§4) The binding IC50, functional effect, and functional EC50 of TA1-1B on exemplary receptors was determined.

[13] = target: T2, CCK2/CCKB (Homo sapiens, UniProt P32239); assay: Receptor functional assay; type: biochemical
T2 sequence (P32239 1-447): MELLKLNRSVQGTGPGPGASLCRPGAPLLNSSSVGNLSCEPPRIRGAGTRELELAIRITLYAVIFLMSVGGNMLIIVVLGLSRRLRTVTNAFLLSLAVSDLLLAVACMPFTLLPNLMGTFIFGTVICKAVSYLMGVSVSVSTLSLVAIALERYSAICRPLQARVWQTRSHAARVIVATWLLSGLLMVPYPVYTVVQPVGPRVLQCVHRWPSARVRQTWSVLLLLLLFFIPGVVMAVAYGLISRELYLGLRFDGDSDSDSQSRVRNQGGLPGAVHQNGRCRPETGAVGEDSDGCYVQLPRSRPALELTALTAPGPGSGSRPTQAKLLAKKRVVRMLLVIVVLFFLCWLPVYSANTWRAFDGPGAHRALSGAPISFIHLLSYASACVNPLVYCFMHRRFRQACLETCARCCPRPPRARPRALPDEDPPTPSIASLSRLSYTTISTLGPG
Procedure: as §4

[14] = target: SST1 (Homo sapiens, UniProt P30872); assay: Receptor functional assay; type: biochemical
Procedure: as §4

[15] = target: SST4 (Homo sapiens, UniProt P31391); assay: Receptor functional assay; type: biochemical
Procedure: as §4

[16] = target: SST5 (Homo sapiens, UniProt P35346); assay: Receptor functional assay; type: biochemical
Procedure: as §4

SST1, sequence (P30872 whole entry, species assumed): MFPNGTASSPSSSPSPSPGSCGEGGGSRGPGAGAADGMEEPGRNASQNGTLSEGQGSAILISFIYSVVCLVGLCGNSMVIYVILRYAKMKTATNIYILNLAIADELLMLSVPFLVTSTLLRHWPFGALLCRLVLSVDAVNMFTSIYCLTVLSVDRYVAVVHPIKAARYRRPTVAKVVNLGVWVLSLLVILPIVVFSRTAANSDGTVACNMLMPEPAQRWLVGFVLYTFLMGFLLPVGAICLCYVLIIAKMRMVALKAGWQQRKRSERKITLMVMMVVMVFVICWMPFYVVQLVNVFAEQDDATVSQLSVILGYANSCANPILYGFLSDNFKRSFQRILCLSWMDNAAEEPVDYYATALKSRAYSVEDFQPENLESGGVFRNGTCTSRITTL
SST4, sequence (P31391 whole entry, species assumed): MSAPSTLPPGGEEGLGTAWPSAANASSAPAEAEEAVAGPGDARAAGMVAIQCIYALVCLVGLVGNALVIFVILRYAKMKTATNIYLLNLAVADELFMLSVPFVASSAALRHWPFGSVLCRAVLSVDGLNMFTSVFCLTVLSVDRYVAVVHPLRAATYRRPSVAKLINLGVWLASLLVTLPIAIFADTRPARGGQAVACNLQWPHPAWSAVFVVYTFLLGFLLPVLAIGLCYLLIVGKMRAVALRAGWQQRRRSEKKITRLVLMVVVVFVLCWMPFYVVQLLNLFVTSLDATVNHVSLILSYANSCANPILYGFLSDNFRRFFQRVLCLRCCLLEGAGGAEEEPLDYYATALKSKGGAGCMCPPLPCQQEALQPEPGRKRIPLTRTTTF
SST5, sequence (P35346 whole entry, species assumed): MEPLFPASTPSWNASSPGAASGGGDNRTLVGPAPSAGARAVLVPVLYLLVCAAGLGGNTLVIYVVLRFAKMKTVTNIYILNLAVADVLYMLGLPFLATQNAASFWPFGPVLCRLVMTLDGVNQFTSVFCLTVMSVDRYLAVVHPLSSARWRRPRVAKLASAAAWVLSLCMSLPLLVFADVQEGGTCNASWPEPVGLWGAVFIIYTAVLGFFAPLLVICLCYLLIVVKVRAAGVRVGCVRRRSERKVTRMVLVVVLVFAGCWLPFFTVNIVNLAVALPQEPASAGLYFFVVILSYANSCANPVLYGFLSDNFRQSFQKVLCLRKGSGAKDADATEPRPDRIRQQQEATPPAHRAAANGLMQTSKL
Adenosine A2A receptors, sequence (P29274 whole entry): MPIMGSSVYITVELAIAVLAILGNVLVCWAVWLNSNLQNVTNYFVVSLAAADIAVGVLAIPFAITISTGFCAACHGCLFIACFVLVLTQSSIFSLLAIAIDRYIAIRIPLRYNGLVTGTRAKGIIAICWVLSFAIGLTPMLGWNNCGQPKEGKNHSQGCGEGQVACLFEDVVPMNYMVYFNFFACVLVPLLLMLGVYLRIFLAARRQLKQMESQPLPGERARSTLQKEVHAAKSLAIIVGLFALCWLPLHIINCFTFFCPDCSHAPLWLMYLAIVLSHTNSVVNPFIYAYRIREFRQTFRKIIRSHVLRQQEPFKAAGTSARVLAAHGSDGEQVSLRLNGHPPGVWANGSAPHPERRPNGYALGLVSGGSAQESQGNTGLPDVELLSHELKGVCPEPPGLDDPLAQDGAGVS
H2-receptor, sequence (P25021 whole entry): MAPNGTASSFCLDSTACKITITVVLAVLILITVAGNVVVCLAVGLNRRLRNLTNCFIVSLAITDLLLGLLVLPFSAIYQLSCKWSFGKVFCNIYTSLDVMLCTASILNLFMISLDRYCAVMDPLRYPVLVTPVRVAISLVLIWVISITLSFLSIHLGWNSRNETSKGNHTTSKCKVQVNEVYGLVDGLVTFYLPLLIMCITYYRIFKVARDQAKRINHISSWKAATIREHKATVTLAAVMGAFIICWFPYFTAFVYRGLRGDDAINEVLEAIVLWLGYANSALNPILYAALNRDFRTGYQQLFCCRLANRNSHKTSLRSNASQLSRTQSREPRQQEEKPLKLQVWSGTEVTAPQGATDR
M4 Muscarinic receptor, sequence (P08173 whole entry): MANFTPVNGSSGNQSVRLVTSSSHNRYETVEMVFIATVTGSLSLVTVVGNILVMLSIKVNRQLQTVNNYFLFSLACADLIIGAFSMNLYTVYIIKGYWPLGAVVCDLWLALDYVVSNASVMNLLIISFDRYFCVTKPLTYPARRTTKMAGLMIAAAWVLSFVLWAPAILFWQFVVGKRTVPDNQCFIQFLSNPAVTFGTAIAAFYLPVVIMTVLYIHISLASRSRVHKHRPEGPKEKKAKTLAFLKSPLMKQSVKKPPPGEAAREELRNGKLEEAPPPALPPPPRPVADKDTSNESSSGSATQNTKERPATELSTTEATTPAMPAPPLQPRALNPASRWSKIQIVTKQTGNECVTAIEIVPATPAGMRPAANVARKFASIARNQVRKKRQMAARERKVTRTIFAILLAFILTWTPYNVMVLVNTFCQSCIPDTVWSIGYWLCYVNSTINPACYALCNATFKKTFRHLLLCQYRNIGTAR
Neurokinin NK2 receptor, sequence (P21452 whole entry): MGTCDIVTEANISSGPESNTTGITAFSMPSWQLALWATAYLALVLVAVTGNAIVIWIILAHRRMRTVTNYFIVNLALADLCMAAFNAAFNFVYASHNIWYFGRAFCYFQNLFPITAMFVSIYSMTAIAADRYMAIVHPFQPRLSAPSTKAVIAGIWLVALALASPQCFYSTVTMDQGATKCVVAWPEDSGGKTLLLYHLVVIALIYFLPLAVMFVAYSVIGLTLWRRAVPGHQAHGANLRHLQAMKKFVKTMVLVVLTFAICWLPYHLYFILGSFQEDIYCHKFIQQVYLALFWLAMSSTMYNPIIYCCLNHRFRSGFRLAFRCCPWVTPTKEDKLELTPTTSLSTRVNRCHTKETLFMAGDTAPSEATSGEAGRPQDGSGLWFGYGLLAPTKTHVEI
M1 Muscarinic receptor, sequence (P11229 whole entry): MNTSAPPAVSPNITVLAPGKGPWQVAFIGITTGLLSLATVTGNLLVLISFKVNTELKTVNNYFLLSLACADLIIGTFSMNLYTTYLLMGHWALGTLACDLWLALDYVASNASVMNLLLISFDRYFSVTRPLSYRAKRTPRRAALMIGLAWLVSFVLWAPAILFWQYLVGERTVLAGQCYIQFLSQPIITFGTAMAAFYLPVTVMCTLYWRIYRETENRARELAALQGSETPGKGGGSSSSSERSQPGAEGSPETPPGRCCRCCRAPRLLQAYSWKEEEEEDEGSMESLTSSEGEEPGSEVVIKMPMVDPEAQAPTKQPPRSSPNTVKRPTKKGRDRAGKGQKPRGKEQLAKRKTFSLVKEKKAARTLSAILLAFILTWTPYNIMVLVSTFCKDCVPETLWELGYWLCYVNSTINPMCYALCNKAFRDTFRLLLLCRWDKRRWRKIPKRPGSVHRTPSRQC

With `CN1CCC[C@H]1CCNC(=O)c1cn2c3c(c(N4CCC(c5cnccn5)C4)c(F)cc3c1=O)Oc1cc3ccccc3cc1-2` (some centres unmarked) [TA1-1B] the EC50 ([1]; Homo sapiens, 48 h) was 0.63 µM, the EC50 ([1]; 48 hours) was 1.22 µM and the EC50 ([2]; 48 hours) was 1.96 µM. It also gave an EC50 ([2]; Homo sapiens, HOP-92, 48 h) of 1.8 µM, an EC50 ([3]; Homo sapiens, 48 h) of 0.914 µM and an EC50 ([3]; 48 hours) of 1.3 µM. For the same molecule, the inhibition at 1 µM [4] was 107%, the inhibition at 1 µM [5] was 98% and the inhibition at 1 µM [6] was 93%. For the same molecule, the inhibition at 1 µM [7] was 87%, the “% inhibition @ 1 uM” value [8] was 67% and the inhibition at 1 µM [9] was 60%. The “% inhibition @ 1 uM” value [10] was 49%, the inhibition at 1 µM [11] was 48% and the EC50 ([12]; antagonist) was 1.6 µM. For the same molecule, the Kb ([12]; antagonist) was 0.34 µM, the “Functional Effect” value ([12]; response noted at 1 μM) was “Antagonist” and the EC50 ([13]; antagonist) was 9 µM. The Kb ([13]; antagonist) was 0.4 µM, the “Functional Effect” value ([13]; response noted at 10 μM) was “Antagonist” and the EC50 ([14]; agonist) was 4.3 µM. The “Functional Effect” value ([14]; response noted at 10 μM) was “Agonist”, the EC50 ([15]; agonist) was 9.9 µM and the “Functional Effect” value ([15]; response noted at 10 μM) was “Agonist”. For the same molecule, the EC50 ([16]; agonist) was 4.7 µM and the “Functional Effect” value ([16]; response noted at 10 μM) was “Agonist”.
